Like-named read-outs stand apart in the source and are kept apart here.

In test [1] the target is IRAK4 auto-phosphorylation (Homo sapiens (Human), UniProt Q9NWZ3). The test can be described thus: IRAK4 phosphorylation cell assay in IL-1β-stimulated Karpas-299 cells. The class given is cell-based. The settings on record: IL-1β 22.7 ng/mL, pIRAK4 (Thr345/Ser346), geometric mean of at least 2 experiments. The procedure, abridged:
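Karpas-299 cells were preincubated 1 h at 37 °C with compound (10-point half-log series, top 30 μM), then stimulated 10 min with 22.7 ng/mL IL-1β. Cells were fixed and stained for pIRAK4 (Thr345/Ser346), and per-cell fluorescence was quantified by high-content imaging. IC50 values are geometric means of at least 2 experiments.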

For test [2], the system named is human PBMCs stimulated with LPS. The test can be described thus: LPS-induced cytokine release in human PBMCs. The class given is cell-based. The conditions noted are these: PBMC, 0.11 ng/mL LPS, 4 h. The source says:
In Vitro Effect of IRAK4 Inhibitors on LPS- and IL-1β-Induced Cytokine Release in Human PBMCs
To evaluate the effect and potency of IRAK4 inhibitors on blocking disease-relevant pathways in human primary immune cells, we stimulated human PBMCs (peripheral blood mononuclear cells) with LPS (TLR4 agonist) or IL-1β (IL-1R ligand) and measured the release of the proinflammatory cytokines IL-6 and TNF-α. Briefly, PBMCs were isolated from human blood, donated from healthy individuals, using LymphoPrep density gradient and plated at a cell density of 200 000 cells/well (for LPS assay) or 300 000 cells/well (for IL-1β assay) in 96-well culture plates. Cells were incubated for 1 h with serial dilutions of IRAK4 inhibitor or vehicle (DMSO) prior to stimulation of cells with 0.11 ng/mL LPS (derived from E. coli) or 1 ng/mL recombinant human IL-1β. After 4 h of LPS stimulation or 20 h of […] stimulation, the supernatant was collected and the levels of the proinflammatory cytokines TNF-α, IL-8 and IL-6 were measured by Mesoscale Discovery (MSD) multiplex assay. Dose-response curves were plotted and IC50 values were calculated with 4-parameter curve fit using GraphPad Prism 8 (see Table 3).

In test [3] the test system is LPS-induced lung inflammation. The test can be described thus: Mouse model of LPS-induced airway inflammation. The class given is in vivo. The settings on record: mice, 5, 15 and 50 mg/kg oral, inhaled LPS 1 mg/mL, 4 h after challenge. As for the experimental part: FIG. 1. In vivo dose response of Example 89 in an acute mouse model of LPS-induced lung inflammation. Example 89 compound was dosed orally to mice 1 h prior to inhaled LPS challenge (1 mg/mL). 4 h after the challenge, the animals were terminated and the levels of IL-6 and TNF-α released in the bronchoalveolar lavage fluid were measured. […] Individual data points represent individual animals, and bars represent the mean value of each group. Statistical differences between groups were calculated with a one-way ANOVA test comparing treatment groups to the vehicle group. **p<0.01, ***p<0.001. The ability of IRAK4 inhibitors according to the specification to reduce inflammatory cytokines and TNF-α in vivo is thus established.
In Vivo Effect of IRAK4 Inhibition in a Mouse Model of LPS-Induced Airway Inflammation
TLRs act as a first sensor of microbes and allergens in the airways and can mediate a rapid inflammatory response. A mouse model of inhaled LPS challenge was used to study the effect of IRAK4 inhibition on the processes of an acute TLR4-driven airway inflammation. […] The levels of proinflammatory cytokines were measured in the BALF supernatant using MSD multiplex assay 8 mice per treatment group were used, except for the LPS/vehicle group where 20 mice were used. […]

IRAK4 auto-phosphorylation, sequence (Q9NWZ3 whole entry): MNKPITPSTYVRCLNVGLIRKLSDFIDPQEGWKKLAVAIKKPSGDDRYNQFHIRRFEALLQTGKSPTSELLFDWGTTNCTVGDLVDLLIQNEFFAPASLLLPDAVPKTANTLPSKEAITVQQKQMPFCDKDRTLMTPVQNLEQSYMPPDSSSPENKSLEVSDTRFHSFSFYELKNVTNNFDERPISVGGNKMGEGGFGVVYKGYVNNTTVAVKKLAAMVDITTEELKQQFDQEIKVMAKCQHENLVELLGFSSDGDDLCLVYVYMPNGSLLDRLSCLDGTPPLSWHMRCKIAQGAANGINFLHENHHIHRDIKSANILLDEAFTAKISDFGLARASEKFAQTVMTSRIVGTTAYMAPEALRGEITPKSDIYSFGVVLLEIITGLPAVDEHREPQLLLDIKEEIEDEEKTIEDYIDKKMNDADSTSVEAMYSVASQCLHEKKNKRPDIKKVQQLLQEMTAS

With `COc1cc2nn([C@@H]3CC[C@@H](O)C[C@H]3C)cc2cc1C(=O)Nc1cnc2cccnn12` [Example 89, 2-((1R,2R,4R)-4-hydroxy-2-methylcyclohexyl)-N-(imidazo[1,2-b]pyridazin-3-yl)-6-methoxy-2H-indazole-5-carboxamide], the IC50 turned out to be 36 nM in test [1]; 32 nM in test [2] (read-out: IC50, IL-6 read-out, LPS stimulation); 39 nM in test [2] (read-out: IC50, TNF-α read-out, LPS stimulation). For the same compound, in test [3], the “levels of IL-6 in bronchoalveolar lavage fluid” value was “reduced the levels of IL-6 and TNF-α upon inhaled LPS challenge, in a dose-dependent manner”. Further, the “levels of TNF-α in bronchoalveolar lavage fluid” value in test [3] is “reduced the levels of IL-6 and TNF-α upon inhaled LPS challenge, in a dose-dependent manner”.

By IC50 is commonly meant the concentration needed to halve the response being measured.

Source of the values: US11866405B2, “Substituted indazoles as IRAK4 inhibitors” (AstraZeneca AB, priority 2020, dated 2024).
